Measurements: patent US7271239B2, “D-isomers of antimicrobial peptide” (The Research Foundation of State University of New York, priority 2004, dated 2007)

Key:
C. albicans strain DIS = type: in vivo, mice ICR strain
Procedure: A previously described protocol was adopted (14). Mice were immunosuppressed with two subcutaneous injections of prednisolone at a dose of 100 mg/kg body weight 1 day prior to and 3 days after the infection with C. albicans. Tetracycline hydrochloride in drinking water at a concentration of 0.83 mg/ml was given to mice beginning 1 day before infection. Mice were anesthetized by intramuscular injection with 60 μl of 2 mg/ml chlorpromazine chloride, using a dose of 10 mg/kg body weight of mice. While under anesthesia, a small cotton ball soaked in 0.1 ml aliquot of C. albicans cell suspension (2.5×10^6 cells) was used to swab the entire oral cavity of the anesthetized mice.
Visual evaluation was done by carefully extending the tongue of randomly picked mice using blunt-end forceps, while the mice were under isoflurane sedation. Presence of thick, white curd-like patches indicated candidal infection. At day 3 post-infection, all animals were examined for evidence oral candidal infection by microbiological evaluation. The entire oral cavity of anesthetized mice was swabbed using a sterile calcium alginate disposable swab (Fisher Scientific), dampened with sterile PBS. Cells were then released from the swab into 1 ml PBS. Serial 10-fold dilutions were plated on SDA plates supplemented with streptomycin (30 μg/ml). Plates were incubated for 24 h at 37° C. and yeast cell count expressed as log10 of cfu/ml.
Tongues from sacrificed animals were used for histological studies. They were fixed in 10% formalin and embedded in paraffin. Serial five-μm sections were cut from the paraffin block and stained with periodic acid-Schiff (PAS) reagent for detection of C. albicans.
Mice were randomly divided into various treatment groups with 8 mice per group. Antifungal agents were employed on an equimolar basis, and included amphotericin B (1.75%), clotrimazole (0.66%), MUC7 12-mer (RKSYKCLHKRCR—SEQ ID NO:1) (L; 3%), MUC7 12-mer (D; 3%), MUC7 12-mer (D; 3%) containing Na2EDTA (1 mM), MUC7 12-mer (L; 3%) containing protease inhibitor cocktail (PIC) (1%), and Hsn5 12-mer (AKRHHGYKRKFH—SEQ ID NO:2) (3%). They were all emulsified in Pluronic F127, (20% lipoil), a polymer of polyoxyethylene and polyoxypropylene (non-ionic surfactant). Animals were anesthetized using isoflurane; while sedated, about 30 to 40 μl of the antifungal emulsion was applied on the tongue and spread throughout oral cavity. The treated mice were under sedation for additional 5 min under isoflurane. Animals were not given access to food and water for 1 h following the application.
Fungal burden was re-evaluated quantitatively after 3 and 6 days of treatment, using the same technique as the one used for initial evaluation. Randomly picked mice from each group was subjected to histopathological evaluation, after 6 days of treatment. Blood from randomly sacrificed mice from each treatment group was analyzed for any changes in the serum liver (AST, ALT, ALP etc.) and kidney enzymes (BUN, glucose, creatinine etc) levels.
Statistical analysis was performed using a significance level set at 0.05 (α) and a significant group size (n=8). Initial infection and antifungal treatment efficacy were determined using analysis of variance (ANOVA), expressed as log10 cfu, and Scheffe's multiple comparison test was used to determine the differences between various treatment groups.

C. albicans DIS = assay: Killing assay in whole human saliva; details: saliva, no peptide
Procedure: FIG. 1. Candidacidal activity of MUC7 12-mer-L, MUC7 12-mer-D, Hsn5 12-mer, and Magainin-II in whole human saliva (WHS). Each peptide at final concentration of 25, 50, and 100 μM was incubated with C. albicans (DIS isolate at 1×10^5 cells/ml) and 20 μl of clarified or unclarified saliva (SL; hatched bars), saliva containing Protease inhibitor cocktail (PIC) (SL+PIC; filled bars), or saliva containing ethylenediamine tetraacetic acid (EDTA) (SL+EDTA; clear bars) at 37° C. for 1.5 h. At the end of incubation, the samples were diluted 20-fold and aliquots plated on SDA. The colony forming units (CFU) were counted after 24 h of incubation. The loss of C. albicans viability was determined by the equation (1−CFU of the test group/CFU of the control group)×100%. The data represent three individual trials, and in each trial the sample was duplicated; the error bars represent standard deviation.
FIG. 4. […] Stimulated whole saliva was collected from 5 healthy subjects. Peptides (50 μM) were incubated with C. albicans cells (1×10^5) in the each individual saliva containing PIC (SL+PIC) at 37° C. for 1.5 hr and the loss of the cell viability was determined. Values represent the mean±S.D. (n=5).
Killing assays in saliva. Unclarified saliva (unstimulated whole saliva) was collected from five healthy individuals during the fasting. Clarified saliva was obtained by passing the unclarified saliva through the 0.2 μm pore size sterile syringe filter (VWR scientific products, West Chester, Pa.). Candidacidal activity assays were performed as described previously (4), except the phosphate buffer was substituted with saliva. […] Saliva without peptides was a blank control. After incubation at 37° C. for 1.5 h, the reactions were diluted 20-fold in PB and aliquots (50 μl, ˜120 cells) of each sample were plated on SDA. The plates were incubated at 37° C. for 1 day aerobically and the number of colony-forming units (CFUs) was counted. Percentage of killing was calculated as (1−amount of viable cells in the test group)/(amount of viable cells in the control group)×100%.

[1] = Experimental study I, topical oral application

Row | Compound | Log10 cfu/ml (Mean + S.D.), Initial infection (C. albicans strain DIS; Experimental study I, day 3 post-infection, before treatment (baseline)) | Log10 cfu/ml (Mean + S.D.), 3-days treatment (C. albicans strain DIS; [1]) | Log10 cfu/ml (Mean + S.D.), 6-days treatment (C. albicans strain DIS; [1]) | histopathological finding in tongue sections (C. albicans, PAS staining) (C. albicans strain DIS; end of treatment) | effect of additive alone on C. albicans cell viability (C. albicans DIS)
1 | Clc1ccccc1C(c1ccccc1)(c1ccccc1)n1ccnc1 [Clotrimazole, 1-[o-chloro-a,a-diphenylbenzyl]-imidazole] | 4.50 ± 0.20 Log10 cfu/ml | 1.58 ± 1.36 Log10 cfu/ml | 0.53 ± 0.99 Log10 cfu/ml | healthy tissue and absence of visible microorganisms | 
2 | O=C(O)CN(CCN(CC(=O)O)CC(=O)O)CC(=O)O [EDTA, ethylenediamine tetraacetic acid] |  |  |  |  | very little or no effect
